In PubChem BioAssay (NCI):
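Grown in 96-well plates, cells were treated for 48 hours with each compound at five concentrations. Insufficient inhibition: endpoint recorded as highest concentration tested. TGI denotes the concentration required for complete inhibition of growth.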

Legend:
Experiment in all cases: NCI anticancer screen, dose series, 48 h
K-562 leukemia = test system: K-562 leukemia
EKVX NSCLC = test system: EKVX NSCLC
HT29 colon = test system: HT29 colon
A549 NSCLC = test system: A549 NSCLC
HOP-62 NSCLC = test system: HOP-62 NSCLC
RPMI-8226 leukemia = test system: RPMI-8226 leukemia
OVCAR-8 ovarian = test system: OVCAR-8 ovarian
MALME-3M melanoma = test system: MALME-3M melanoma
DLD-1 colon = test system: DLD-1 colon
SF-539 CNS = test system: SF-539 CNS
KM12 colon = test system: KM12 colon
HL-60(TB) leukemia = test system: HL-60(TB) leukemia
DMS 273 small cell lung = test system: DMS 273 small cell lung
XF 498 CNS = test system: XF 498 CNS
HCT-116 colon = test system: HCT-116 colon
SNB-19 CNS = test system: SNB-19 CNS
CCRF-CEM leukemia = test system: CCRF-CEM leukemia
SNB-78 CNS = test system: SNB-78 CNS
M14 melanoma = test system: M14 melanoma
SF-268 CNS = test system: SF-268 CNS
UACC-62 melanoma = test system: UACC-62 melanoma
SN12C renal = test system: SN12C renal
MOLT-4 leukemia = test system: MOLT-4 leukemia
A498 renal = test system: A498 renal
NCI-H226 lung = test system: NCI-H226 lung
SK-MEL-5 melanoma = test system: SK-MEL-5 melanoma
OVCAR-5 ovarian = test system: OVCAR-5 ovarian
KM20L2 colon = test system: KM20L2 colon
CAKI-1 renal = test system: CAKI-1 renal
RXF-631 renal = test system: RXF-631 renal
DMS 114 small cell lung = test system: DMS 114 small cell lung
HCC-2998 colon = test system: HCC-2998 colon
LXFL 529 NSCLC = test system: LXFL 529 NSCLC
HOP-18 NSCLC = test system: HOP-18 NSCLC
OVCAR-3 ovarian = test system: OVCAR-3 ovarian
786-0 renal = test system: 786-0 renal
LOX IMVI melanoma = test system: LOX IMVI melanoma
U251 CNS = test system: U251 CNS
HCT-15 colon = test system: HCT-15 colon
SF-295 CNS = test system: SF-295 CNS
ACHN renal = test system: ACHN renal
TK-10 renal = test system: TK-10 renal
NCI-H23 lung = test system: NCI-H23 lung
SK-OV-3 ovarian = test system: SK-OV-3 ovarian
SW-620 colon = test system: SW-620 colon
IGROV1 ovarian = test system: IGROV1 ovarian
NCI-H460 lung = test system: NCI-H460 lung
NCI-H522 lung = test system: NCI-H522 lung
M19-MEL melanoma = test system: M19-MEL melanoma
HOP-92 NSCLC = test system: HOP-92 NSCLC
OVCAR-4 ovarian = test system: OVCAR-4 ovarian
COLO 205 colon = test system: COLO 205 colon
UO-31 renal = test system: UO-31 renal
UACC-257 melanoma = test system: UACC-257 melanoma

Measured: TGI

O=C(CC(=O)c1cccc2ccccc12)C(=O)Nc1ccc(Cl)cc1
> 100 µM: all assays above
